The values below come from patent publication US11078205B2, “Selective inhibitors of protein arginine methlytransferase 5 (PRMT5)” (Prelude Therapeutics, Incorporated, priority 2017, dated 2021).

In brackets after ≈: the same amount, converted by molar mass.

A short description of data set [1]: physchem. The conditions noted are these: 25 °C, thermodynamic from solid.
Data set [2] concerns sDMA in tumor samples. Kind of data set: sDMA levels in Granta-519 xenograft tumor samples by western blot. Format: in vivo, mouse. The following applies: 12 hours after last dosing. The procedure:
Granta-519 cells was maintained in DMEM medium supplemented with 10% fetal bovine serum and 2 mM L-Glutamine at 37° C. in an atmosphere of 5% CO2 in air. Cells in exponential growth phase were harvested and 1×10^7 cells in 0.1 mL of PBS with Matrigel (1:1) were injected subcutaneously at the right lower flank region of each mouse for tumor development. The treatments were started when the mean tumor size reaches approximately 300-400 mm^3. […] Example 47 or vehicle (0.5% Na CMC+0.5% Tween80, suspension) were administered orally (QD for Example 47, QD for vehicle) at a dose of 30 mg/kg and 50 mg/kg for 19 and 16 days, respectively. Body weights and tumor size were measured every 3 to 4 days after randomization. Animals were euthanized 12 hours after last dosing, and blood and tumor samples were collected for analysis.
To measure sDMA levels in tumor samples, tumors from each mouse were weighted and homogenized in RIPA buffer supplemented with protease inhibitor (cOmplete™, EDTA-free Protease Inhibitor Cocktail, Roche). Lysate were centrifuged at 14,000 rpm for 30 min at 4° C. to remove debris. Total protein concentrations of lysate were determined by BCA assay (ThermoFisher Scientific, Catalog #: 23225). Equal amount of total proteins from each tumor were separated on SDS-PAGE gel, and sDMA levels were determined by WB as described previously.
On the technique in general: Immunoblotting shows a protein as a band on a membrane.

Data set [3] has as its target PRMT5/MEP50 complex (Homo sapiens (Human), UniProt O14744). Kind of data set: Biochemical assay: PRMT5/MEP50 methylation of histone H2A with 3H-SAM, filter plate scintillation. The following applies: histone H2A 5 μM, SAM 1 μM, PRMT5/MEP50 5 nM. The procedure: Biochemical Assay Protocol
Compounds were solubilized and 3-fold diluted in 100% DMSO. […] Standard reactions were performed in a total volume of 50 μl in assay buffer, with histone H2A (5 μM final) as substrate. To this was added the PRMT5/MEP50 complex diluted to provide a final assay concentration of 5 nM and the compounds were allowed to preincubate for 15 to 20 minutes at room temperature. The reaction was initiated by adding S-[3H-methyl]-adenosyl-L-methionine (PerkinElmer) to final concentration of 1 μM. Following a 60 minutes incubation at 30° C., the reaction was stopped by adding 100 μL of 20% TCA. Each reaction was spotted onto filter plate (Multi Screen FB Filter Plate, Millipore), and washed 5 times with PBS buffer, Scintillation fluid was added to the filter plate and read in a scintillation counter. IC50 values were determined by fitting the data to the standard 4 parameters with Hill Slope using GraphPad Prism software.

By solubility is commonly meant the dissolved amount per volume that the medium holds. Higher therefore signals a readily soluble substance. By IC50 is commonly meant the point on the concentration scale where inhibition reaches its midpoint.

Sequence of PRMT5/MEP50 complex (O14744 whole entry): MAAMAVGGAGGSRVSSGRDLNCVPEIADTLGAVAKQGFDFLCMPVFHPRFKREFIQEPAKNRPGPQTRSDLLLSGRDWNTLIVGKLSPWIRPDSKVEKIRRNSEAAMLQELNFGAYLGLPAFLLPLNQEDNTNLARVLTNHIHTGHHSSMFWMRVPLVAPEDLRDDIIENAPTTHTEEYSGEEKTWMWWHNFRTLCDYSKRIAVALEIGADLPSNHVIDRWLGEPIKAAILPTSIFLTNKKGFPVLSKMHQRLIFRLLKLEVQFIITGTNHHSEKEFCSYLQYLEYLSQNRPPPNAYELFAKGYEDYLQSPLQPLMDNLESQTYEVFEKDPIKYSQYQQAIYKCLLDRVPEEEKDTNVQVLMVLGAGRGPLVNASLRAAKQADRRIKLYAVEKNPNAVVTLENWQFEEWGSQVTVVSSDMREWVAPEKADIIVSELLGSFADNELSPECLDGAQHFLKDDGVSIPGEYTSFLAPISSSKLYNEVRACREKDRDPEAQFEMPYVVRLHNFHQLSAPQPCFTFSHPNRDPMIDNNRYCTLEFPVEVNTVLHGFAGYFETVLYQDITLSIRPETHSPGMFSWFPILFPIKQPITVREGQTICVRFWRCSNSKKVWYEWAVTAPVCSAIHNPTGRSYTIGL
Sequence of PRMT5/MEP50 complex (Q9BQA1 whole entry partner): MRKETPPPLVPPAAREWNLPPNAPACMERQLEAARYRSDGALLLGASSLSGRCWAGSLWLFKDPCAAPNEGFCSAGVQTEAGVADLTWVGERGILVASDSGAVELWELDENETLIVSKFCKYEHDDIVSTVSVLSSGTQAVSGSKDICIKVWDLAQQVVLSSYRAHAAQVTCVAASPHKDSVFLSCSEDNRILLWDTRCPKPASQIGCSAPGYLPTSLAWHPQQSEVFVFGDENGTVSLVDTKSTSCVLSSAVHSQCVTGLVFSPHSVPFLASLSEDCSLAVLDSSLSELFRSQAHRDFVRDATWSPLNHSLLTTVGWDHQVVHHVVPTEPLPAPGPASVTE

`O=C1C(O)=C([C@H]2CC[C@H](c3ccc(Cl)cc3)CC2)C(=O)c2ccccc21` [Atovaquone] gave a solubility at 4 h in data set [1] (fassif) below 2 µg/mL.

Consider `C[C@@]1(O)[C@@H]([C@H](O)c2ccc(Cl)c(Cl)c2)O[C@@H](n2ccc3c(N)ncnc32)[C@@H]1O` [Example 47, (2R,3S,4R,5R)-5-(4-amino-7H-pyrrolo[2,3-d]pyrimidin-7-yl)-2-((R)-(3,4-dichlorophenyl)(hydroxy)methyl)-3-methyltetrahydrofuran-3,4-diol], for which, in data set [2] (30 mg/kg orally QD), the “inhibition of sDMA” value was above 90%. Besides, the “sDMA level in tumor” value in data set [2] (50 mg/kg orally QD) was “no detectable sDMA”.

As for `C[C@@]1(O)[C@@H]([C@@H](O)c2ccc(Cl)c(Cl)c2)O[C@@H](n2ccc3c(N)ncnc32)[C@@H]1O` [Example 66, (2R,3S,4R,5R)-5-(4-amino-7H-pyrrolo[2,3-d]pyrimidin-7-yl)-2-((S)-(3,4-dichlorophenyl)(hydroxy)methyl)-3-methyltetrahydrofuran-3,4-diol], in data set [3], the IC50 was found to be 707 nM.

In the case of `CC(=O)CC(c1ccccc1)c1c(O)c2ccccc2oc1=O` (centres unmarked) [Warfarin], the solubility at 4 h in data set [1] lay within 10 to 25 µg/mL (≈ 32.4 to 81.1 µM).
